Assay results reported in patent publication US20120156648A1, “APPARATUS AND METHOD FOR DELIVERING A THERAPEUTIC AGENT TO DENTAL TISSUE” (BUCKEYE DENTAL, LLC, priority 2010, published 2012).

Experiment: In vitro model of drug delivery: HP gel into extracted human teeth by MACROESIS vs diffusion, HP eluted into water measured by colorimetric kit / UV-Vis at 550 nm
Assay type: in vitro ADME
Conditions: for HP concentration in receiving medium (distilled water): below threshold of reliable detection, excluded from analysis
Procedure: MACROESIS™ drug delivery system uses an AC electrical field to push active pharmaceutical agents through biological membranes, such as peroxide gels into the layers of tooth enamel. Current methods of chair-side whitening involve applying a gel which is either self-activating, or activated by heat or UV. Another alternative involves custom trays containing the whitening agent obtained from a dentist used over a 7-10 day period at home (30 min to 2 hours per application). An in vitro model of drug delivery was used in a validity study investigating the delivery of a 35% Carbamide Peroxide gel into extracted human teeth by MACROESIS™.
Fourteen (14) freshly extracted human teeth without detectable caries or restoration were stored in distilled water at 4° C. and used within 1 month of extraction. Teeth were randomly assigned to the diffusion experimental group (6 teeth) or enhanced electrochemical delivery (MACROESIS™) experimental group (6 teeth). Two teeth were randomly assigned to a control group. The experiment was run in two rounds of six teeth each (3 from each treatment group) approximately two weeks apart to show repeatability of results.
The diffusion group received: 66±1 mg 6% HP gel applied evenly to the tooth surface for 20 minutes. The MACROESIS™ group received: 66±1 mg 6% HP gel applied evenly to the tooth surface for 20 minutes using the electrochemical drug delivery device and electrode (FIG. 5A-C). The control group contained one control tooth subjected to the diffusion treatment and one control tooth subjected to the MACROESIS™ treatment.
Following treatment, the teeth were rinsed twice in distilled water and dried. The outer surface of the teeth was covered with two layers of clear nail varnish to fill any defects. […]
The amount of H2O2 that diffused from the dentin was measured by a colorimetric oxidation-reduction reaction kit (HYDROGEN PEROXIDE CHEMets®, VACUettes® and Vacu-vials®, CHEMetrics, Inc., Calverton, Va.). HP concentration was measured by UV-Vis spectroscopy at 550 nm.

With `OO` [HP, H2O2] the “HP concentration in receiving medium (distilled water)” value (1-hour samples) was less than 0.1 PPM, the “HP concentration in receiving medium (distilled water)” value (48-hour samples) was less than 0.1 PPM and the “time in which the majority of the HP eluted from the teeth into the water” value (receiving medium removed at 1 hour, 24 hours and 48 hours) was “between 1 hour and 24 hours”.
